Laboratory results from publication PMC4521150, “Discovery of Novel Inhibitors and Fluorescent Probe Targeting NAMPT” (Scientific Reports, 2015).
Read-outs that look alike come from different tables or passages of the source.

Tests used:
HepG2 NAD levels = experiment: Cellular NAD measurement (enzymatic cycling assay) in HepG2 cells; format: cell-based, human
Method: Cellular level of NAD was measured by spectrophotometric enzymatic cycling assay, as described previously. Briefly, cells were seeded in 96-well plate and starved for over 12 h with serum-free DMEM at 60~70% confluency, following by treatment with compounds or vehicle for 24 h. Cells were lysed with 50 μl of 1M HClO4 on ice for 30 min. The lysates were cleared by centrifuging at 4 °C at 18,000 × g for 5 min, and cleared lysates (40 μl) were neutralized by adding 1M K2CO3 (16 μl) and incubation on ice for 20 min. After centrifuging for 10 min, 10 μl of supernatant were mixed with reaction buffer [50 mM Tris-HCl (pH 7.5), 3% ethanol, 1.66 mM PES (phenazineethosulfate), 0.42 mM MTT (3-(4,5-dimethylthiazolyl-2)-2,5-diphenyltetrazolium bromide), 90 μg/ml ADH] in a total volume of 100 ul, and incubated at 37 °C for 40 min. The absorbance at 570 nm was determined. A blank measurement without ADH was also carried out. Each experiment was carried out in triplicate in three replicate wells

HepG2 cells [1] = experiment: Cell viability assay (CCK-8) in HepG2 cells; format: cell-based, human; conditions: for IC50: HepG2, 48 h, CCK-8, read-out: IC50 for inhibitory effect on HepG2 cell viability
Method: (§1) Cell viability was determined by our previous method[27] using the Cell Counting Kit-8 (CCK-8, Dojindo, Japan). In human hepatocellular carcinoma cell line HepG2, cells were seeded in 96-well plate and starved for over 12 h with serum-free DMEM at 60~70% confluency, then treated with compounds or vehicle for 48 h. To determine the IC50 values of inhibitors, compounds with various concentrations were added into the 96-well plate. 10 μl CCK-8 solution was added to the culture medium and incubated at 37 °C for 1 h. The absorbance at 450 nm (A450) was detected by a plate reader. Each experiment was carried out in triplicate in three replicate wells. The IC50 values were determined by non-linear fitting of the concentration-dependent curves with the four-parameter IC50 logistic equation.

Huh-7 cell = experiment: Cell viability in Huh-7 cells; format: cell-based, human; conditions: Huh-7, Figure S2
Source text: However, IC50 values for other 5 fluorescent compounds were able to be determined (Supplemental dataset S2). We then measured the fluorescence of all 9 fluorescent compounds at a series of different concentrations.

[2] = test system: primary mouse hepatocytes; experiment: Cell viability of primary hepatocytes from normal mice; format: cell-based; conditions: 30 μM
Method: as §1
Hepatocytes were isolated from mouse liver by the two-step collagenase perfusion method. […] For imaging experiment, 1 × 10^5 cells were plated in a 35-mm glass bottom dishes or 5 × 10^4 were plated in 48-well plate for cell viability assay in DMEM supplemented with 10% FBS and antibiotics, and kept under an atmosphere of 95% air and 5% CO2 at 37 °C.

HepG2 cells [3] = experiment: Live cell fluorescence imaging of compounds in HepG2 cells; format: cell-based, human; conditions: 3 μM, 30 minutes incubation, washed
Method: NAMPT knockdown in HepG2 cells was performed by transfection of NAMPT siRNA synthesized by Shanghai GenePharma Co., Ltd (Shanghai, China). The siRNA sequence targeting NAMPT corresponded to coding regions (5′-[…]-3′, 5′-[…]-3′) of the NAMPT gene. The nonspecific siRNA oligonucleotides (synthesized by Shanghai GenePharma Co., Ltd, Shanghai, China) were used as negative controls. 10 nM of NAMPT siRNA or nonspecific siRNA were transfected into HepG2 cells with Lipofectamine RNAiMax reagent (Invitrogen, CA, USA) according to the manufacturer’s instructions. After 24 or 48 hours, transfected cells were subjected to subsequent analysis.
For imaging experiment, HepG2 cells or primary hepatocytes were seeded into 35-mm glass bottom dishes (In Vitro Scientific). The following day, compounds were added to the medium at a final concentration of 3 μM. After 30 minutes, cells were rinsed twice with PBS (pH 7.5), then incubated in fresh culture medium and imaged on a fluorescence microscope (IX-71, Olympus) with a digital camera (Olympus). After 4 hours, these cells were imaged once again. Digital images were recorded and analyzed using ImageJ.

## Cc1nc2ccccc2n(Cc2ccc(C(=O)NCc3cccnc3)cc2)c1=O [F671-0003]
HepG2 NAD levels; HepG2, 1 μM, 24 hours
  Decrease of cellular NAD level: ~ 80%
HepG2 NAD levels; Homo sapiens, HepG2, 24 hours treatment, read-out: IC50 for reducing NAD level
  IC50: 6.71 nM
HepG2 cells [1]; 2 μM, 48 hours of incubation
  Effect on HepG2 cell viability at 2 μM: significant inhibition on cell viability
HepG2 cells [1]; HepG2, 2 μM, 48 h
  Inhibition on cell viability: 50%
HepG2 cells [1]; HepG2, 3 μM compound, NMN at 300 μM
  Rescue of cell viability by exogenous NMN: totally rescued
HepG2 cells [1]
  IC50: 1690 ± 150 nM
HepG2 cells [1]; Homo sapiens
  IC50: ~2000 nM
Huh-7 cell
  Effect on Huh-7 cell viability: Inhibitory effects
[2]
  Inhibition of normal hepatocytes viability: ~ 20%
HepG2 cells [3]
  Cellular fluorescence in living HepG2 cells: did not show any fluorescence
